In patent US5001127A, “4-substituted pyrazolo[3,4-d]pyrimidine derivatives” (Ortho Pharmaceutical Corporation, priority 1989, dated 1991):
Where two headings read alike, the source gives them in different places.

Tested on: Adult mongrel dogs
Experiment: Cardiotonic activity in anesthetized dogs (MAP, HR, dP/dtmax, contractile force), iv infusion
Format: in vivo
Conditions: for change in vivo at 1.875 mg/kg / ED (50% increase): Canis lupus familiaris; for ED (50% increase): dose producing 50% increase above baseline in myocardial contractile force, graphical estimation (n<3) or linear regression (n≥3), read-out: contractile force (CF) ED50
Experimental: Adult mongrel dogs were anesthetized with sodium pentobarbital (45 mg/kg, i.p.) and artificially respired. Mean arterial pressure (MAP) was recorded from a cannulated femoral artery and drugs were infused into a cannulated femoral vein. The arterial pressure pulse was used to trigger a cardiotachometer for determination of heart rate (HR). Left ventricular pressure was measured with a Millar catheter and dP/dtmax was derived. A right thoracotomy was performed and myocardial contractile force (CF) was measured with a Walton Brodie strain gauge sutured to the right ventricle. The ventricular muscle was stretched to produce a baseline tension of 100 g. A standard dose of dopamine (10-15 ug/kg/min for 3 min) was administered to determine myocardial responsiveness to inotropic stimulation. Test compounds were solubilized in a small volume of DMF diluted to a final concentration of 10% in physiological saline. Alternatively, where possible, a soluble hydrochloride salt was prepared by addition of 0.1N HCl diluted in physiological saline. Vehicles were tested in appropriate volumes and found to exert less than a 5% effect on contractile force. For iv studies, compounds were administered by infusion pump (one drug per animal) at rates of 0.58-2.2 mL/min in three to four stepwise increasing doses. Each dose was infused over 5 min immediately after the effect of the previous dose peaked. MAP, HR, dP/dtmax and CF responses were continuously monitored on a Beckman or Gould recorder and expressed as a percent change from pre-drug control values vs. the cumulative dose of drug administered. For these studies, n represents the number of test animals used.
Quantitation of the inotropic potency was obtained by calculation of the contractile force (CF) ED50. This was defined as the dose of compound that produced a 50% increase above baseline in myocardial contractile force. The value was obtained from three to four point dose-response curves using either graphical estimation (n<3) or linear regression analysis (n≥3). Numbers in parentheses are number of animals screened.

[1] = cumulative dose 1.875 mg/kg, femoral artery, read-out: MAP (mean arterial pressure), % Δ from control
[2] = cumulative dose 1.875 mg/kg, read-out: HR (heart rate), % Δ from control
[3] = cumulative dose 1.875 mg/kg, read-out: dP/dt (left ventricular dP/dtmax), % Δ from control
[4] = cumulative dose 1.875 mg/kg, right ventricle strain gauge, read-out: CF (myocardial contractile force), % Δ from control

`OC(CSc1ncnc2[nH]ncc12)CN1CCN(C(c2ccc(F)cc2)c2ccc(F)cc2)CC1` (stereo not drawn) [Example 1] gave a change in vivo at 1.875 mg/kg [1] of -3%, a change in vivo at 1.875 mg/kg [2] of -10% and a change in vivo at 1.875 mg/kg [3] of 124%. The change in vivo at 1.875 mg/kg [4] was 205% and the ED (50% increase) was 0.225 mg/kg.
Work on `OC(CSc1ncnc2[nH]ncc12)CN1CCN(C(c2ccccc2)c2ccccc2)CC1` (stereo not drawn) [Example 2, 4-[2-Hydroxy-1-[(diphenylmethyl)piperazin-4-yl)-3-propanylthio]-1H-pyrazolo[3,4-d]pyrimidine Hemihydrate] yielded a change in vivo at 1.875 mg/kg [1] of -12%, a change in vivo at 1.875 mg/kg [2] of -11% and a change in vivo at 1.875 mg/kg [3] of 48%. It also gave a change in vivo at 1.875 mg/kg [4] of 97%.
With `OC(COc1ncnc2c1cnn2C1CCCCO1)CN1CCN(C(c2ccc(F)cc2)c2ccc(F)cc2)CC1` (stereo not drawn) [Example 3, 4-[3-[4-[Bis(4-fluorophenyl)methyl]-piperazin-1-yl]-2-hydroxy-propoxy]-1-(tetrahydropyran-2-yl)pyrazolo[3,4-d]pyrimidine] the change in vivo at 1.875 mg/kg [1] was -13%, the change in vivo at 1.875 mg/kg [2] was 1% and the change in vivo at 1.875 mg/kg [3] was 1%. For the same molecule, the change in vivo at 1.875 mg/kg [4] was 14%.
`OC(CSc1ncnc2[nH]ncc12)CN1CCN(C(c2ccc(Cl)cc2)c2ccc(Cl)cc2)CC1` (stereo not drawn) [Example 4, 4-[1-[1-[Bis(4-chlorophenyl)methyl]piperazin-4-yl]-2-hydroxy-3-pronanylthio]-1H-pyrazolo[3,4-d]pyrimidine] showed a change in vivo at 1.875 mg/kg [1] of 8%, a change in vivo at 1.875 mg/kg [2] of 1% and a change in vivo at 1.875 mg/kg [3] of 90%. It also gave a change in vivo at 1.875 mg/kg [4] of 163% and an ED (50% increase) of 0.45 mg/kg.
In the case of `OC(CSc1ncnc2c1cnn2CC1CO1)CN1CCN(C(c2ccccc2)c2ccccc2)CC1` (stereo not drawn) [Example 5, 1-(1,2-Epoxy-3-propanyl)-4-[1-(diphenylmethylpiperazin-4-yl]-2-hydroxy-3-propanylthio]-1H-pyrazolo[3,4-d]pyrimidine], the “HR (heart rate), % Δ from control” value (cumulative dose 1.875 mg/kg) is reported as -14 % Δ from control, the “dP/dt (left ventricular dP/dtmax), % Δ from control” value (cumulative dose 1.875 mg/kg) is reported as 28 % Δ from control and the “MAP (mean arterial pressure), % Δ from control” value (cumulative dose 1.875 mg/kg, femoral artery) is reported as -8 % Δ from control. The “CF (myocardial contractile force), % Δ from control” value (cumulative dose 1.875 mg/kg, right ventricle strain gauge) was 38 % Δ from control.
`OC(CNc1ncnc2[nH]ncc12)CN1CCN(C(c2ccc(F)cc2)c2ccc(F)cc2)CC1` (stereo not drawn) [Example 7, 4-[3-[4-Bis(4-fluorophenyl)methyl]-1-piperazinyl]-2-hydroxypropylamino-1H-pyrazolo[3,4-d]pyrimidine sesquihydrate] gave a change in vivo at 1.875 mg/kg [1] of 6%, a change in vivo at 1.875 mg/kg [2] of -20% and a change in vivo at 1.875 mg/kg [3] of 33%. The change in vivo at 1.875 mg/kg [4] was 111%.
For `CC(=O)OC(CNc1ncnc2[nH]ncc12)CN1CCN(C(c2ccc(F)cc2)c2ccc(F)cc2)CC1` (stereo not drawn) [Example 8, 4-[3-[4-Bis(4-fluorophenyl)methyl]-1-piperazinyl]-2-acetoxypropylamino-1H-pyrazolo[3,4-d]pyrimidine Hemihydrate], the change in vivo at 1.875 mg/kg [1] was 6%, the change in vivo at 1.875 mg/kg [2] was -1% and the change in vivo at 1.875 mg/kg [3] was 61%. The change in vivo at 1.875 mg/kg [4] was 135%.
Molecule `CN(CC(O)CN1CCN(C(c2ccc(F)cc2)c2ccc(F)cc2)CC1)c1ncnc2[nH]ncc12` (stereo not drawn) [Example 9, 4-[3-[4-Bis(4-fluorophenyl)methyl-1-piperazinyl]-2-hydroxypropylamino-N-methylamino-1H-pyrrazolo[3,4-d]pyrimidine Hemihydrate] has a change in vivo at 1.875 mg/kg [1] of 4%, a change in vivo at 1.875 mg/kg [2] of 3% and a change in vivo at 1.875 mg/kg [3] of 52%. For the same molecule, the change in vivo at 1.875 mg/kg [4] was 54%.
Work on `CCN(CC(O)CN1CCN(C(c2ccc(F)cc2)c2ccc(F)cc2)CC1)c1ncnc2[nH]ncc12` (stereo not drawn) [Example 10, 4-[3-[4-Bis(4-fluorophenyl)methyl]-1-piperazinyl]-2-hydroxypropyl-N-ethylamino]-1H-pyrazolo[3,4-d]pyrimidine.1/4 Hydrate] yielded a change in vivo at 1.875 mg/kg [1] of 3%, a change in vivo at 1.875 mg/kg [2] of 13% and a change in vivo at 1.875 mg/kg [3] of 44%. It also gave a change in vivo at 1.875 mg/kg [4] of 63%.
`CON(CC(O)CN1CCN(C(c2ccc(F)cc2)c2ccc(F)cc2)CC1)c1ncnc2[nH]ncc12` (stereo not drawn) [Example 11, 4-[3-[4-Bis(4-fluorophenyl)methyl-1-piperazinyl-2-hydroxypropyl-N-methoxyamino]-(1H)-pyrazolo[3,4-d]pyrimidine.5/4 Hydrate] was tested, and the change in vivo at 1.875 mg/kg [1] was -2%, the change in vivo at 1.875 mg/kg [2] was 5% and the change in vivo at 1.875 mg/kg [3] was 25%. The change in vivo at 1.875 mg/kg [4] was 37%.
